Source: US20150307938A1, “METHOD TO IDENTIFY A NOVEL CLASS OF IMMUNOLOGIC ADJUVANTS” (Lancell, L.L.C., priority 2011, published 2015)

System: skin
Experiment: Affymetrix microarray of skin, DBP-4 hr and analogs vs. untreated; gene selection by log-2 fold change, Wilcoxon, Kendall tau (Tables 8, 9)
Assay type: in vivo, mouse

Structure (SMILES): CCOC(=O)c1ccccc1C(=O)OCC [DEP, diethylphthalate]
- Log2 Expression Level (gene #1 of Table 8): 5.52
- Log2 Expression Level (gene #2 of Table 8): 7.18
- Log2 Expression Level (gene #3 of Table 8): 8.98
- Log2 Expression Level (gene #4 of Table 8): 8.98
- Log2 Expression Level (gene #5 of Table 8): 6.10
- Log2 Expression Level (gene #6 of Table 8): 7.14
- Log2 Expression Level (gene #7 of Table 8): 6.55
- Log2 Expression Level (gene #8 of Table 8): 7.14
- Log2 Expression Level (gene #9 of Table 8): 7.14
- Log2 Expression Level (gene #10 of Table 8): 7.14
- Log2 Expression Level (gene #11 of Table 8): 6.55
- Log2 Expression Level (gene #12 of Table 8): 6.55
- Log2 Expression Level (gene #13 of Table 8): 6.55
- Log2 Expression Level (gene #14 of Table 8): 4.71
- Log2 Expression Level (gene #15 of Table 8): 4.71
- Log2 Expression Level (gene #16 of Table 8): 7.54
- Log2 Expression Level (gene #17 of Table 8): 9.32
- Log2 Expression Level (gene #18 of Table 8): 9.32
- Log2 Expression Level (gene #19 of Table 8): 8.41
- Log2 Expression Level (gene #20 of Table 8): 8.85
- Log2 Expression Level (gene #21 of Table 8): 8.77
- Log2 Expression Level (gene #22 of Table 8): 5.30
- Log2 Expression Level (gene #23 of Table 8): 6.03
- Log2 Expression Level (gene #24 of Table 8): 7.92
- Log2 Expression Level (gene #25 of Table 8): 7.92
- Log2 Expression Level (gene #26 of Table 8): 7.51
- Log2 Expression Level (gene #27 of Table 8): 7.51
- Log2 Expression Level (gene #28 of Table 8): 7.51
- Log2 Expression Level (gene #29 of Table 8): 5.79
- Log2 Expression Level (gene #30 of Table 8): 8.76
- Log2 Expression Level (gene #31 of Table 8): 8.76
- Log2 Expression Level (gene #32 of Table 8): 8.76
- Log2 Expression Level (gene #33 of Table 8): 5.34
- Log2 Expression Level (gene #34 of Table 8): 6.85
- Log2 Expression Level (gene #35 of Table 8): 6.85
- Log2 Expression Level (gene #36 of Table 8): 8.98
- Log2 Expression Level (gene #37 of Table 8): 8.98
- Log2 Expression Level (gene #38 of Table 8): 8.98
- Log2 Expression Level (gene #39 of Table 8): 7.28
- Log2 Expression Level (gene #40 of Table 8): 7.39
- Log2 Expression Level (gene #41 of Table 8): 7.54
- Log2 Expression Level (gene #42 of Table 8): 7.18
- Log2 Expression Level (gene #43 of Table 8): 7.18
- Log2 Expression Level (gene #44 of Table 8): 7.54
- Log2 Expression Level (gene #45 of Table 8): 7.18
- Log2 Expression Level (gene #46 of Table 8): 7.54
- Log2 Expression Level (gene #47 of Table 8): 8.45
- Log2 Expression Level (gene #48 of Table 8): 8.45
- Log2 Expression Level (gene #49 of Table 8): 8.45
- Log2 Expression Level (gene #50 of Table 8): 9.67
- Log2 Expression Level (gene #51 of Table 8): 7.95
- Log2 Expression Level (gene #52 of Table 8): 9.60
- Log2 Expression Level (gene #53 of Table 8): 8.70
- Log2 Expression Level (gene #54 of Table 8): 10.81
- Log2 Expression Level (gene #55 of Table 8): 6.30
- Log2 Expression Level (gene #56 of Table 8): 9.40
- Log2 Expression Level (gene #57 of Table 8): 8.76
- Log2 Expression Level (gene #58 of Table 8): 8.74
- Log2 Expression Level (gene #59 of Table 8): 7.93
- Log2 Expression Level (gene #60 of Table 8): 7.26
- Log2 Expression Level (gene #61 of Table 8): 12.58
- Log2 Expression Level (gene #62 of Table 8): 7.63
- Log2 Expression Level (gene #63 of Table 8): 10.52
- Log2 Expression Level (gene #64 of Table 8): 11.04
- Log2 Expression Level (gene #65 of Table 8): 6.97
- Log2 Expression Level (gene #66 of Table 8): 7.90
- Log2 Expression Level (gene #67 of Table 8): 4.52
- Log2 Expression Level (gene #68 of Table 8): 8.29
- Log2 Expression Level (gene #69 of Table 8): 5.13
- Log2 Expression Level (gene #70 of Table 8): 4.38
- Log2 Expression Level (gene #71 of Table 8): 7.95
- Log2 Expression Level (gene #72 of Table 8): 7.61
- Log2 Expression Level (gene #73 of Table 8): 6.09
- Log2 Expression Level (gene #74 of Table 8): 7.13
- Log2 Expression Level (gene #75 of Table 8): 8.41
- Log2 Expression Level (gene #76 of Table 8): 4.13
- Log2 Expression Level (gene #77 of Table 8): 9.75
- Log2 Expression Level (gene #78 of Table 8): 10.71
- Log2 Expression Level (gene #79 of Table 8): 6.51
- Log2 Expression Level (gene #80 of Table 8): 12.79
- Log2 Expression Level (gene #81 of Table 8): 5.69
- Log2 Expression Level (gene #82 of Table 8): 4.90
- Log2 Expression Level (gene #83 of Table 8): 7.87
- Log2 Expression Level (gene #84 of Table 8): 7.51
- Log2 Expression Level (gene #85 of Table 8): 4.61
- Log2 Expression Level (gene #86 of Table 8): 6.60
- Log2 Expression Level (gene #87 of Table 8): 7.01
- Log2 Expression Level (gene #88 of Table 8): 5.04
- Log2 Expression Level (gene #89 of Table 8): 5.15
- Log2 Expression Level (gene #90 of Table 8): 10.08
- Log2 Expression Level (gene #91 of Table 8): 6.27
- Log2 Expression Level (gene #92 of Table 8): 7.41
- Log2 Expression Level (gene #93 of Table 8): 8.87
- Log2 Expression Level (gene #94 of Table 8): 7.83
- Log2 Expression Level (gene #95 of Table 8): 5.79
- Log2 Expression Level (gene #96 of Table 8): 6.84
- Log2 Expression Level (gene #97 of Table 8): 5.27
- Log2 Expression Level (gene #98 of Table 8): 5.94
- Log2 Expression Level (gene #99 of Table 8): 9.42
- Log2 Expression Level (gene #100 of Table 8): 7.53
